Read-outs that look alike come from different tables or passages of the source.
Assays:
Format in all cases: in vivo
[1] = system: barnyardgrass (Echinochloa crus-galli); assay: Test B pre-/postemergence plant response; conditions: for pest or weed control at 500 g/ha: 500 g ai/ha
Summary of the method: (§1)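 Greenhouse pots, loam/sand soil; compound formulated with surfactant in non-phytotoxic solvent. Preemergence soil spray and postemergence spray at 1–2 leaf stage run simultaneously. Visual injury, 0–100, about 10 days post-treatment.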

corn (Zea mays) [2] = assay: Test B pre-/postemergence plant response; conditions: Zea mays, post-emergence, 240 h
Summary of the method: as §1

[3] = system: giant foxtail (Setaria faberii); assay: Test B pre-/postemergence plant response; conditions: for pest or weed control at 500 g/ha: 500 g ai/ha
Summary of the method: as §1

[4] = system: pigweed (Amaranthus retroflexus); assay: Test B pre-/postemergence plant response; conditions: for pest or weed control at 500 g/ha: 500 g ai/ha
Summary of the method: as §1

[5] = system: wheat (Triticum aestivum); assay: Test B pre-/postemergence plant response; conditions: Triticum aestivum, post-emergence, 240 h, read-out: Plant response rating, Wheat
Summary of the method: as §1

[6] = system: Italian ryegrass (Lolium multiflorum); assay: Test D pre-/postemergence plant response; conditions: Lolium multiflorum, pre-emergence, Preemergence
Summary of the method: (§2)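 Sown seed (loam/sand soil) treated preemergence; emerged plants, 1- to 4-leaf stage and 2 to 18 cm, treated postemergence in peat/vermiculite medium. Greenhouse incubation 13–15 d. Endpoint: visual 0–100 rating versus untreated.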

[7] = system: barnyardgrass (Echinochloa crus-galli); assay: Test D pre-/postemergence plant response; conditions: Echinochloa crus-galli, pre-emergence, Preemergence
Summary of the method: as §2

[8] = system: blackgrass (Alopecurus myosuroides); assay: Test D pre-/postemergence plant response; conditions: Alopecurus myosuroides, pre-emergence, Preemergence
Summary of the method: as §2

corn (Zea mays) [9] = assay: Test D pre-/postemergence plant response; conditions: Zea mays, pre-emergence, Preemergence
Summary of the method: as §2

[10] = system: galium (catchweed bedstraw, Galium aparine); assay: Test D pre-/postemergence plant response; conditions: Galium, pre-emergence, Preemergence
Summary of the method: as §2

[11] = system: giant foxtail (Setaria faberii); assay: Test D pre-/postemergence plant response; conditions: Setaria faberi, pre-emergence, Preemergence
Summary of the method: as §2

[12] = system: lambsquarters (Chenopodium album); assay: Test D pre-/postemergence plant response; conditions: Chenopodium album, pre-emergence, Preemergence
Summary of the method: as §2

[13] = system: morningglory (Ipomoea coccinea); assay: Test D pre-/postemergence plant response; conditions: Ipomoea, pre-emergence, Preemergence
Summary of the method: as §2

[14] = system: pigweed (Amaranthus retroflexus); assay: Test D pre-/postemergence plant response; conditions: Amaranthus retroflexus, pre-emergence, Preemergence
Summary of the method: as §2

[15] = system: ragweed (common ragweed, Ambrosia elatior); assay: Test D pre-/postemergence plant response; conditions: Ambrosia artemisiifolia, pre-emergence, Preemergence
Summary of the method: as §2

[16] = system: waterhemp (common waterhemp, Amaranthus rudis); assay: Test D pre-/postemergence plant response; conditions: Amaranthus tuberculatus, pre-emergence, Preemergence
Summary of the method: as §2

[17] = Preemergence, 125 g ai/ha, 0 to 100 scale (0 no effect, 100 complete control)
[18] = 125 g ai/ha, postemergence, 0 to 100 scale, 0 no effect, 100 complete control
[19] = Postemergence, 500 g ai/ha, 0 to 100 scale (0 no effect, 100 complete control)

N#Cc1cccc(Oc2ncc(Cl)cn2)c1-c1cc(C(F)(F)F)ccn1 [Compound 158, 5-chloro-2-[3-cyano-2-[4-(trifluoromethyl)-2-pyridinyl]phenoxy]pyrimidine]
pest or weed control at 125 g/ha ([1]; Echinochloa crus-galli, post-emergence, 240 h, 125 g ai/ha, postemergence, 0 to 100 scale, 0 no effect, 100 complete control, read-out: Plant response rating, Barnyardgrass): 60%
pest or weed control at 500 g/ha ([1]; Echinochloa crus-galli, post-emergence, 240 h, Postemergence, 0 to 100 scale (0 no effect, 100 complete control), read-out: Plant response rating, Barnyardgrass): 100%
pest or weed control at 500 g/ha ([1]; Echinochloa crus-galli, pre-emergence, 240 h, Preemergence, 0 to 100 scale where 0 is no effect and 100 is complete control, read-out: Plant response rating, Barnyardgrass): 100%
Barnyardgrass plant response rating [1, 17]: 90
Corn plant response rating (crop injury, 0 = no effect, 100 = complete kill) at 125 g/ha (corn (Zea mays) [2]; [18]): 30%
Corn plant response rating (crop injury, 0 = no effect, 100 = complete kill) at 500 g/ha (corn (Zea mays) [2]; [19]): 90%
Foxtail, Giant plant response rating [3, 17]: 90
pest or weed control at 125 g/ha ([3]; Setaria faberi, post-emergence, 240 h, 125 g ai/ha, postemergence, 0 to 100 scale, 0 no effect, 100 complete control, read-out: Plant response rating, Foxtail, Giant): 50%
pest or weed control at 500 g/ha ([3]; Setaria faberi, post-emergence, 240 h, Postemergence, 0 to 100 scale (0 no effect, 100 complete control), read-out: Plant response rating, Foxtail, Giant): 100%
pest or weed control at 500 g/ha ([3]; Setaria faberi, pre-emergence, 240 h, Preemergence, 0 to 100 scale where 0 is no effect and 100 is complete control, read-out: Plant response rating, Foxtail, Giant): 100%
pest or weed control at 125 g/ha ([4]; Amaranthus retroflexus, post-emergence, 240 h, 125 g ai/ha, postemergence, 0 to 100 scale, 0 no effect, 100 complete control, read-out: Plant response rating, Pigweed): 80%
pest or weed control at 500 g/ha ([4]; Amaranthus retroflexus, post-emergence, 240 h, Postemergence, 0 to 100 scale (0 no effect, 100 complete control), read-out: Plant response rating, Pigweed): 100%
pest or weed control at 500 g/ha ([4]; Amaranthus retroflexus, pre-emergence, 240 h, Preemergence, 0 to 100 scale where 0 is no effect and 100 is complete control, read-out: Plant response rating, Pigweed): 100%
Pigweed plant response rating [4, 17]: 90
plant injury at 125 g/ha [5, 18]: 20%
plant injury at 500 g/ha [5, 19]: 70%
pest or weed control at 125 g/ha ([6]; 125 g ai/ha, read-out: Plant response rating (scale 0 to 100), Ryegrass, Italian): 20%
pest or weed control at 16 g/ha ([6]; 16 g ai/ha, scale 0 to 100 (0 no effect, 100 complete control), read-out: Plant response rating, Ryegrass, Italian): 0%
pest or weed control at 31 g/ha ([6]; 31 g ai/ha, scale 0 to 100 (0 no effect, 100 complete control), read-out: Plant response rating, Ryegrass, Italian): 0%
pest or weed control at 62 g/ha ([6]; 62 g ai/ha, scale 0 to 100 (0 no effect, 100 complete control), read-out: Plant response rating, Ryegrass, Italian): 0%
pest or weed control at 125 g/ha ([7]; 125 g ai/ha, read-out: Plant response rating (scale 0 to 100), Barnyardgrass): 20%
pest or weed control at 16 g/ha ([7]; 16 g ai/ha, scale 0 to 100 (0 no effect, 100 complete control), read-out: Plant response rating, Barnyardgrass): 0%
pest or weed control at 31 g/ha ([7]; 31 g ai/ha, scale 0 to 100 (0 no effect, 100 complete control), read-out: Plant response rating, Barnyardgrass): 5%
pest or weed control at 62 g/ha ([7]; 62 g ai/ha, scale 0 to 100 (0 no effect, 100 complete control), read-out: Plant response rating, Barnyardgrass): 35%
pest or weed control at 125 g/ha ([8]; 125 g ai/ha, read-out: Plant response rating (scale 0 to 100), Blackgrass): 90%
pest or weed control at 16 g/ha ([8]; 16 g ai/ha, scale 0 to 100 (0 no effect, 100 complete control), read-out: Plant response rating, Blackgrass): 0%
pest or weed control at 31 g/ha ([8]; 31 g ai/ha, scale 0 to 100 (0 no effect, 100 complete control), read-out: Plant response rating, Blackgrass): 15%
pest or weed control at 62 g/ha ([8]; 62 g ai/ha, scale 0 to 100 (0 no effect, 100 complete control), read-out: Plant response rating, Blackgrass): 50%
plant injury at 125 g/ha (corn (Zea mays) [9]; 125 g ai/ha, read-out: Plant response rating (scale 0 to 100), Corn): 15%
Corn plant response rating (crop injury, 0 = no effect, 100 = complete kill) at 16 g/ha (corn (Zea mays) [9]; 16 g ai/ha, scale 0 to 100 (0 no effect, 100 complete control)): 0%
Corn plant response rating (crop injury, 0 = no effect, 100 = complete kill) at 31 g/ha (corn (Zea mays) [9]; 31 g ai/ha, scale 0 to 100 (0 no effect, 100 complete control)): 0%
Corn plant response rating (crop injury, 0 = no effect, 100 = complete kill) at 62 g/ha (corn (Zea mays) [9]; 62 g ai/ha, scale 0 to 100 (0 no effect, 100 complete control)): 5%
pest or weed control at 125 g/ha ([10]; 125 g ai/ha, read-out: Plant response rating (scale 0 to 100), Galium): 100%
pest or weed control at 16 g/ha ([10]; 16 g ai/ha, scale 0 to 100 (0 no effect, 100 complete control), read-out: Plant response rating, Galium): 0%
pest or weed control at 31 g/ha ([10]; 31 g ai/ha, scale 0 to 100 (0 no effect, 100 complete control), read-out: Plant response rating, Galium): 50%
pest or weed control at 62 g/ha ([10]; 62 g ai/ha, scale 0 to 100 (0 no effect, 100 complete control), read-out: Plant response rating, Galium): 100%
pest or weed control at 125 g/ha ([11]; 125 g ai/ha, read-out: Plant response rating (scale 0 to 100), Foxtail, Giant): 100%
pest or weed control at 16 g/ha ([11]; 16 g ai/ha, scale 0 to 100 (0 no effect, 100 complete control), read-out: Plant response rating, Foxtail, Giant): 5%
pest or weed control at 31 g/ha ([11]; 31 g ai/ha, scale 0 to 100 (0 no effect, 100 complete control), read-out: Plant response rating, Foxtail, Giant): 55%
pest or weed control at 62 g/ha ([11]; 62 g ai/ha, scale 0 to 100 (0 no effect, 100 complete control), read-out: Plant response rating, Foxtail, Giant): 85%
pest or weed control at 125 g/ha ([12]; 125 g ai/ha, read-out: Plant response rating (scale 0 to 100), Lambsquarters): 80%
pest or weed control at 16 g/ha ([12]; 16 g ai/ha, scale 0 to 100 (0 no effect, 100 complete control), read-out: Plant response rating, Lambsquarters): 75%
pest or weed control at 31 g/ha ([12]; 31 g ai/ha, scale 0 to 100 (0 no effect, 100 complete control), read-out: Plant response rating, Lambsquarters): 100%
pest or weed control at 62 g/ha ([12]; 62 g ai/ha, scale 0 to 100 (0 no effect, 100 complete control), read-out: Plant response rating, Lambsquarters): 100%
pest or weed control at 125 g/ha ([13]; 125 g ai/ha, read-out: Plant response rating (scale 0 to 100), Morningglory): 70%
pest or weed control at 16 g/ha ([13]; 16 g ai/ha, scale 0 to 100 (0 no effect, 100 complete control), read-out: Plant response rating, Morningglory): 5%
pest or weed control at 31 g/ha ([13]; 31 g ai/ha, scale 0 to 100 (0 no effect, 100 complete control), read-out: Plant response rating, Morningglory): 15%
pest or weed control at 62 g/ha ([13]; 62 g ai/ha, scale 0 to 100 (0 no effect, 100 complete control), read-out: Plant response rating, Morningglory): 15%
pest or weed control at 125 g/ha ([14]; 125 g ai/ha, read-out: Plant response rating (scale 0 to 100), Pigweed): 100%
pest or weed control at 16 g/ha ([14]; 16 g ai/ha, scale 0 to 100 (0 no effect, 100 complete control), read-out: Plant response rating, Pigweed): 70%
pest or weed control at 31 g/ha ([14]; 31 g ai/ha, scale 0 to 100 (0 no effect, 100 complete control), read-out: Plant response rating, Pigweed): 75%
pest or weed control at 62 g/ha ([14]; 62 g ai/ha, scale 0 to 100 (0 no effect, 100 complete control), read-out: Plant response rating, Pigweed): 100%
pest or weed control at 125 g/ha ([15]; 125 g ai/ha, read-out: Plant response rating (scale 0 to 100), Ragweed): 50%
pest or weed control at 16 g/ha ([15]; 16 g ai/ha, scale 0 to 100 (0 no effect, 100 complete control), read-out: Plant response rating, Ragweed): 80%
pest or weed control at 31 g/ha ([15]; 31 g ai/ha, scale 0 to 100 (0 no effect, 100 complete control), read-out: Plant response rating, Ragweed): 60%
pest or weed control at 62 g/ha ([15]; 62 g ai/ha, scale 0 to 100 (0 no effect, 100 complete control), read-out: Plant response rating, Ragweed): 70%
pest or weed control at 125 g/ha ([16]; 125 g ai/ha, read-out: Plant response rating (scale 0 to 100), Waterhemp): 100%
pest or weed control at 16 g/ha ([16]; 16 g ai/ha, scale 0 to 100 (0 no effect, 100 complete control), read-out: Plant response rating, Waterhemp): 100%
pest or weed control at 31 g/ha ([16]; 31 g ai/ha, scale 0 to 100 (0 no effect, 100 complete control), read-out: Plant response rating, Waterhemp): 100%
pest or weed control at 62 g/ha ([16]; 62 g ai/ha, scale 0 to 100 (0 no effect, 100 complete control), read-out: Plant response rating, Waterhemp): 100%

From patent publication US10131652B2, “Pyrimidinyloxy benzene derivatives as herbicides” (E. I. DU PONT DE NEMOURS AND COMPANY, priority 2014, dated 2018)
